From ChEMBL document CHEMBL1201862, “PubChem BioAssay data set” (2004)
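Each compound was tested at five concentrations against cells in 96-well plates for 48 hours. The concentration for 50% growth inhibition is given as GI50.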 Active and inactive are the calls of the source. No stated cut-off is given here; in the data, active = GI50 up to about 1.1 µM and inactive = higher.

Columns and labels:
Assay in all cases: NCI-60 cell line screen, 48 h
NCI-H226 = system: NCI-H226
MDA-N = system: MDA-N
COLO 205 = system: COLO 205
TK-10 = system: TK-10
PC-3 = system: PC-3
IGROV-1 = system: IGROV-1
MDA-MB-231 = system: MDA-MB-231
OVCAR-8 = system: OVCAR-8
HOP-92 = system: HOP-92
OVCAR-5 = system: OVCAR-5
LOX IMVI = system: LOX IMVI
NCI/ADR-RES = system: NCI/ADR-RES
SK-OV-3 = system: SK-OV-3
NCI-H23 = system: NCI-H23
A549 = system: A549
SR = system: SR
SK-MEL-5 = system: SK-MEL-5
RXF 393 = system: RXF 393
SK-MEL-2 = system: SK-MEL-2
RPMI-8226 = system: RPMI-8226

SMILES	GI50 (NCI-H226)	GI50 (MDA-N)	GI50 (COLO 205)	GI50 (TK-10)	GI50 (PC-3)	GI50 (IGROV-1)	GI50 (MDA-MB-231)	GI50 (OVCAR-8)	GI50 (HOP-92)	GI50 (OVCAR-5)	GI50 (LOX IMVI)	GI50 (NCI/ADR-RES)	GI50 (SK-OV-3)	GI50 (NCI-H23)	GI50 (A549)	GI50 (SR)	GI50 (SK-MEL-5)	GI50 (RXF 393)	GI50 (SK-MEL-2)	GI50 (RPMI-8226)
Oc1ccc(-c2cn3cc(C(F)(F)F)ccc3n2)cc1	74.3 µM (inactive)	43.7 µM (inactive)	45.2 µM (inactive)	41.5 µM (inactive)	46.9 µM (inactive)	63.2 µM (inactive)	> 100 µM (inactive)	37.8 µM (inactive)	> 100 µM (inactive)	76.9 µM (inactive)	43.2 µM (inactive)	29.9 µM (inactive)	> 100 µM (inactive)	38 µM (inactive)	44.8 µM (inactive)	26.2 µM (inactive)	32.1 µM (inactive)	31.6 µM (inactive)	62.2 µM (inactive)	–
O=C(CSc1nc2nncc-2c(O)[nH]1)c1ccc(Cl)cc1	> 100 µM (inactive)	> 100 µM (inactive)	> 100 µM (inactive)	> 100 µM (inactive)	> 100 µM (inactive)	> 100 µM (inactive)	> 100 µM (inactive)	> 100 µM (inactive)	–	> 100 µM (inactive)	> 100 µM (inactive)	> 100 µM (inactive)	> 100 µM (inactive)	> 100 µM (inactive)	> 100 µM (inactive)	> 100 µM (inactive)	> 100 µM (inactive)	> 100 µM (inactive)	75.3 µM (inactive)	> 100 µM (inactive)
COC(=O)/C=C/CC(=O)NS(C)(=O)=O	> 10 µM (inactive)	> 10 µM (inactive)	> 10 µM (inactive)	> 10 µM (inactive)	> 10 µM (inactive)	> 10 µM (inactive)	> 10 µM (inactive)	> 10 µM (inactive)	–	> 10 µM (inactive)	> 10 µM (inactive)	> 10 µM (inactive)	> 10 µM (inactive)	> 10 µM (inactive)	> 10 µM (inactive)	> 10 µM (inactive)	> 10 µM (inactive)	> 10 µM (inactive)	> 10 µM (inactive)	> 10 µM (inactive)
CC1OC(OC2C(O[C@H]3CC[C@@]4(C)C(=CC[C@H]5[C@@H]6C[C@@H]7O[C@]8(CC[C@H](C)CN8)[C@@H](C)[C@@H]7[C@@]6(C)CC[C@@H]54)C3)OC(CO)C(O)C2OC2OC(CO)C(O)C(O)C2O)C(O)C(O)C1O (stereo partly specified)	17.4 µM (inactive)	20.7 µM (inactive)	17.9 µM (inactive)	17.3 µM (inactive)	18.1 µM (inactive)	19.5 µM (inactive)	21.4 µM (inactive)	15.5 µM (inactive)	17.5 µM (inactive)	14.8 µM (inactive)	28.3 µM (inactive)	16.4 µM (inactive)	16.9 µM (inactive)	18.5 µM (inactive)	18.1 µM (inactive)	29 µM (inactive)	19.2 µM (inactive)	15.8 µM (inactive)	18.4 µM (inactive)	–
CC(C(=O)O)C(C)(O)C(=O)O (stereo unspecified)	> 100 µM (inactive)	> 100 µM (inactive)	> 100 µM (inactive)	> 100 µM (inactive)	> 100 µM (inactive)	> 100 µM (inactive)	> 100 µM (inactive)	> 100 µM (inactive)	–	61.8 µM (inactive)	> 100 µM (inactive)	> 100 µM (inactive)	> 100 µM (inactive)	> 100 µM (inactive)	> 100 µM (inactive)	> 100 µM (inactive)	> 100 µM (inactive)	> 100 µM (inactive)	> 100 µM (inactive)	> 100 µM (inactive)
CC(C)=CCc1cc(C2COc3cc4c(c(O)c3C2=O)C=CC(C)(C)O4)c(O)cc1O (stereo unspecified)	–	14.4 µM (inactive)	20.2 µM (inactive)	16.8 µM (inactive)	12.4 µM (inactive)	16.2 µM (inactive)	14.2 µM (inactive)	21.5 µM (inactive)	16.7 µM (inactive)	15.6 µM (inactive)	17.7 µM (inactive)	22.6 µM (inactive)	15.7 µM (inactive)	15.6 µM (inactive)	12.7 µM (inactive)	6.78 µM (inactive)	11.3 µM (inactive)	6.59 µM (inactive)	17.7 µM (inactive)	6.43 µM (inactive)
Cc1ccc2c(c1)C(=S)N1CSCC1c1nncn1-2 (stereo unspecified)	> 100 µM (inactive)	> 100 µM (inactive)	> 100 µM (inactive)	> 100 µM (inactive)	> 100 µM (inactive)	> 100 µM (inactive)	> 100 µM (inactive)	> 100 µM (inactive)	–	> 100 µM (inactive)	> 100 µM (inactive)	> 100 µM (inactive)	> 100 µM (inactive)	–	> 100 µM (inactive)	> 100 µM (inactive)	> 100 µM (inactive)	> 100 µM (inactive)	> 100 µM (inactive)	> 100 µM (inactive)
CCCCc1c2c(nc3c1CCCC3O)CCCC2 (stereo unspecified)	> 100 µM (inactive)	> 100 µM (inactive)	> 100 µM (inactive)	> 100 µM (inactive)	> 100 µM (inactive)	> 100 µM (inactive)	> 100 µM (inactive)	> 100 µM (inactive)	79.4 µM (inactive)	> 100 µM (inactive)	–	> 100 µM (inactive)	> 100 µM (inactive)	> 100 µM (inactive)	> 100 µM (inactive)	5.11 µM (inactive)	> 100 µM (inactive)	> 100 µM (inactive)	> 100 µM (inactive)	> 100 µM (inactive)
C=CCNC1=C2C[C@@H](C)C[C@@H](OC)[C@H](OC(=O)CCN(C)C)[C@H](C)/C=C(\C)[C@@H](OC(N)=O)[C@H](OC)/C=C\C=C(/C)C(=O)NC(=CC1=O)C2=O	–	0.0386 µM (active)	< 0.0188 µM (active)	0.0755 µM (active)	0.0386 µM (active)	0.13 µM (active)	2.05 µM (inactive)	0.324 µM (active)	8.41 µM (inactive)	2.18 µM (inactive)	0.0993 µM (active)	8.51 µM (inactive)	0.0327 µM (active)	0.0547 µM (active)	0.0559 µM (active)	0.0204 µM (active)	0.0508 µM (active)	0.182 µM (active)	0.059 µM (active)	1.15 µM (inactive)
O=C(NC1=C(Cl)C(=O)c2ccccc2C1=O)c1ccc(F)cc1	1.1 µM (active)	3.33 µM (inactive)	2.44 µM (inactive)	5.09 µM (inactive)	1.13 µM (inactive)	1.7 µM (inactive)	4.4 µM (inactive)	5.47 µM (inactive)	1.61 µM (inactive)	4.85 µM (inactive)	–	3.37 µM (inactive)	–	3.27 µM (inactive)	5.37 µM (inactive)	3.66 µM (inactive)	–	1.25 µM (inactive)	–	2.51 µM (inactive)
CC(C)(C)c1cc2c(O)c(c1)Cc1cc(C(C)(C)C)cc(c1O)Cc1cc(C(C)(C)C)cc(c1O)Cc1cc(C(C)(C)C)cc(c1O)Cc1cc(C(C)(C)C)cc(c1O)Cc1cc(C(C)(C)C)cc(c1O)Cc1cc(C(C)(C)C)cc(c1O)Cc1cc(C(C)(C)C)cc(c1O)C2	> 50 µM (inactive)	> 50 µM (inactive)	> 50 µM (inactive)	> 50 µM (inactive)	> 50 µM (inactive)	> 50 µM (inactive)	> 50 µM (inactive)	> 50 µM (inactive)	> 50 µM (inactive)	> 50 µM (inactive)	–	> 50 µM (inactive)	> 50 µM (inactive)	> 50 µM (inactive)	> 50 µM (inactive)	> 50 µM (inactive)	> 50 µM (inactive)	> 50 µM (inactive)	> 50 µM (inactive)	> 50 µM (inactive)
COC(=O)CCC1(C)C2CCC1/C(=N/O)C2 (stereo unspecified)	> 100 µM (inactive)	> 100 µM (inactive)	> 100 µM (inactive)	> 100 µM (inactive)	> 100 µM (inactive)	> 100 µM (inactive)	> 100 µM (inactive)	> 100 µM (inactive)	–	> 100 µM (inactive)	–	> 100 µM (inactive)	> 100 µM (inactive)	> 100 µM (inactive)	> 100 µM (inactive)	> 100 µM (inactive)	> 100 µM (inactive)	> 100 µM (inactive)	> 100 µM (inactive)	> 100 µM (inactive)
CCCCCC(/C=N/NC(N)=S)C(O)(C(F)(F)F)C(F)(F)F (stereo unspecified)	> 10 µM (inactive)	> 10 µM (inactive)	> 10 µM (inactive)	> 10 µM (inactive)	> 10 µM (inactive)	> 10 µM (inactive)	> 10 µM (inactive)	> 10 µM (inactive)	> 10 µM (inactive)	> 10 µM (inactive)	> 10 µM (inactive)	> 10 µM (inactive)	> 10 µM (inactive)	> 10 µM (inactive)	> 10 µM (inactive)	> 10 µM (inactive)	> 10 µM (inactive)	> 10 µM (inactive)	> 10 µM (inactive)	–
COc1cc(S(=O)(=O)Nc2nc(-c3ccc(N)cc3)cs2)ccc1Cl	41.7 µM (inactive)	55.8 µM (inactive)	32.1 µM (inactive)	48 µM (inactive)	51.8 µM (inactive)	44.7 µM (inactive)	> 100 µM (inactive)	64.7 µM (inactive)	64.9 µM (inactive)	> 100 µM (inactive)	91.8 µM (inactive)	89.5 µM (inactive)	97.9 µM (inactive)	45.8 µM (inactive)	51.5 µM (inactive)	61 µM (inactive)	38.6 µM (inactive)	38.1 µM (inactive)	69.5 µM (inactive)	–
